Results from US9480740B2, “Synthetic glucopyranosyl lipid adjuvants” (priority 2009, dated 2016).

Tests used:
[1] = system: ID83 antigen (Mycobacterium tuberculosis antigenic polypeptide)-specific IFN-γ secreting splenocytes; assay: ELISPOT of IFN-γ cytokine responses of splenocytes from mice vaccinated with ID83 antigen plus adjuvant; format: in vivo, Mice (C57BL/6)
TLR4, MD-2, and CD14 = target: T1, TLR4, MD-2, and CD14 (Homo sapiens, UniProt O00206+Q9Y6Y9); assay: NF-kB reporter (secreted alkaline phosphatase, QUANTIBlue) assay in HEK 293 cells expressing TLR4, MD-2 and CD14; format: cell-based
T1 construct: host or cells: HEK 293
Protocol: (§1) Compound IX was tested in vitro using HEK 293 cells (InvivoGen) with expression vectors encoding 1) TLR4, MD-2, and CD14, or 2) TLR2 and TLR6 to define compound activity and dependence on TLR4, and to exclude activation of TLR2. These HEK 293 cell lines were further stably transfected with the NF-kB reporter vector pNifty-2 such that alkaline phosphatase is secreted into the growth media upon activation of the TLR signaling pathway. Transfected cell lines were plated at 5×10^4 cells per well in a 96-well plates and stimulated for 16-24 hours cultured in medium containing serial dilutions of Compound IX and other adjuvants. Secreted alkaline phosphatase activity was measured in the culture media using QUANTIBlue® assay (InvivoGen). The data was measured as enhancement of NF-kB above the PBS negative control. […] Compound IX was designed based on structural considerations of the reported atomic structure of MD2 and TLR4. […] Thus, it is expected that Compound IX and other illustrative compounds of the invention can be safely administered over a broad range of concentrations, which is highly desirable in the context of reproducibility of clinical outcomes among patients and for the safety in ranging a dose for adults and children. […]

human whole blood cells = assay: Induction of immunostimulatory cytokines (MIP-1-α and TNF-α ELISA) in human whole blood; format: cell-based; details: human whole blood from two donors, 1:5 serial dilutions, 20 hour incubation
Protocol: In this example, human whole blood cells were stimulated with Compound IX and ELISA assays were performed to detect the induction of immunostimulatory cytokines. Serial dilutions (1:5) of Compound IX and other adjuvants were performed with phosphate buffered saline in a 96 well plate for a total of 7 dilutions. 100 μl of freshly drawn human blood from two different donors were mixed and incubated with 100 μl of adjuvant dilutions. Following a 20 hour incubation, plates were centrifuged and supernatants (˜70 μl) were collected, avoiding red blood cells, and stored at −20° C. prior performing MIP-1-α and TNF-α ELISAs using standard biochemical procedures. […] Additionally, these primary donor results mimicked the results seen in human cell lines and extend these important findings in relation to the possible dose ranges and safety profiles for this compound.

TLR2 and TLR6 = target: T2, TLR2 and TLR6 (Homo sapiens, UniProt O60603+Q9Y2C9); assay: NF-kB reporter (secreted alkaline phosphatase, QUANTIBlue) assay in HEK 293 cells expressing TLR2 and TLR6; format: cell-based; details: HEK 293 cells with TLR2, TLR6 and NF-kB reporter
T2 construct: host or cells: HEK 293
Protocol: as §1

T1 sequence (O00206 24-839): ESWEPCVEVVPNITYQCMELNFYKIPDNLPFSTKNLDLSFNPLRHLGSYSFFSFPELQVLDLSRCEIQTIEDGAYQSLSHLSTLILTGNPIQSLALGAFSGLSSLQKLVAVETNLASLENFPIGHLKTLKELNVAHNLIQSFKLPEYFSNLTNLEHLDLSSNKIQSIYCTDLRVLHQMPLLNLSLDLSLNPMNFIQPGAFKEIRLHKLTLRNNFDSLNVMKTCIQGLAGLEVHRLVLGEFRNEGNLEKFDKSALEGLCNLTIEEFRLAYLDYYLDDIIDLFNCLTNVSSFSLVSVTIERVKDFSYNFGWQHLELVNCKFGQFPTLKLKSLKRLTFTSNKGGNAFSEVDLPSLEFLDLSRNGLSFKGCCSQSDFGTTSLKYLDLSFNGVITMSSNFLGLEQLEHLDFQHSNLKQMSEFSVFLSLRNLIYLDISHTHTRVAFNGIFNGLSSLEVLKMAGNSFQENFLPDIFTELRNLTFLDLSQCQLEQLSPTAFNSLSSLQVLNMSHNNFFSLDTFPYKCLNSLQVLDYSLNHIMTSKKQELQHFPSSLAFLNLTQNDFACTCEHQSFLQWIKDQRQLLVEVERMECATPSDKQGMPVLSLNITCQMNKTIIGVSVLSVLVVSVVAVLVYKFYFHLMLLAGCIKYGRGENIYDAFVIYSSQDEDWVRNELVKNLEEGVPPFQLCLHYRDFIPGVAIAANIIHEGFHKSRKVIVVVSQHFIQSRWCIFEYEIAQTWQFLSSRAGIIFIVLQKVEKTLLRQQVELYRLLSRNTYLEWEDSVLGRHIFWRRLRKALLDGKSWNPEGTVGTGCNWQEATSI
T1 sequence (Q9Y6Y9 17-160 limits assumed): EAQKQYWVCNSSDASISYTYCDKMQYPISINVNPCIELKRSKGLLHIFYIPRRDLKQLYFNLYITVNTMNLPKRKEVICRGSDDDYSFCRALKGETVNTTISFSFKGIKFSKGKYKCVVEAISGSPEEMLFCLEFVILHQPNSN
T2 sequence (O60603 21-784): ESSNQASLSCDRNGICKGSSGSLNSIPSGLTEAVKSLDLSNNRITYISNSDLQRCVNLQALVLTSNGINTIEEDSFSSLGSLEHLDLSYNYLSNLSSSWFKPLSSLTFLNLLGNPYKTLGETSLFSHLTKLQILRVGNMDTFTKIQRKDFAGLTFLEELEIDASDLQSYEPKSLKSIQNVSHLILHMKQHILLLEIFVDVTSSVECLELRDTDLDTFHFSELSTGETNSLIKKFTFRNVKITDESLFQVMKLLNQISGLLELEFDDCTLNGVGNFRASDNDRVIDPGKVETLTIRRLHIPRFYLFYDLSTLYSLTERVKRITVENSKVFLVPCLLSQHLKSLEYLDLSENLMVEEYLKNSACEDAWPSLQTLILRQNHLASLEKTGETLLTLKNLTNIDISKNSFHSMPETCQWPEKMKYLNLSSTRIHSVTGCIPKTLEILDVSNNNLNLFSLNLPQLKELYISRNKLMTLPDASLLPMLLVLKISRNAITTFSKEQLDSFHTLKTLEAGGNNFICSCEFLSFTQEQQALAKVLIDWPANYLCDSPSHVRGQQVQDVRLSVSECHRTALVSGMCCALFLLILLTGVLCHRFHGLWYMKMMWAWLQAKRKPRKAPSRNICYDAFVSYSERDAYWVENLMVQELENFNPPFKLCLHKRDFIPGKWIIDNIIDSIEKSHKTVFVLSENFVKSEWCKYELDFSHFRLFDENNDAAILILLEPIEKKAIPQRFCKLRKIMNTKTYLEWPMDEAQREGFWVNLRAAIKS
T2 sequence (Q9Y2C9 32-796): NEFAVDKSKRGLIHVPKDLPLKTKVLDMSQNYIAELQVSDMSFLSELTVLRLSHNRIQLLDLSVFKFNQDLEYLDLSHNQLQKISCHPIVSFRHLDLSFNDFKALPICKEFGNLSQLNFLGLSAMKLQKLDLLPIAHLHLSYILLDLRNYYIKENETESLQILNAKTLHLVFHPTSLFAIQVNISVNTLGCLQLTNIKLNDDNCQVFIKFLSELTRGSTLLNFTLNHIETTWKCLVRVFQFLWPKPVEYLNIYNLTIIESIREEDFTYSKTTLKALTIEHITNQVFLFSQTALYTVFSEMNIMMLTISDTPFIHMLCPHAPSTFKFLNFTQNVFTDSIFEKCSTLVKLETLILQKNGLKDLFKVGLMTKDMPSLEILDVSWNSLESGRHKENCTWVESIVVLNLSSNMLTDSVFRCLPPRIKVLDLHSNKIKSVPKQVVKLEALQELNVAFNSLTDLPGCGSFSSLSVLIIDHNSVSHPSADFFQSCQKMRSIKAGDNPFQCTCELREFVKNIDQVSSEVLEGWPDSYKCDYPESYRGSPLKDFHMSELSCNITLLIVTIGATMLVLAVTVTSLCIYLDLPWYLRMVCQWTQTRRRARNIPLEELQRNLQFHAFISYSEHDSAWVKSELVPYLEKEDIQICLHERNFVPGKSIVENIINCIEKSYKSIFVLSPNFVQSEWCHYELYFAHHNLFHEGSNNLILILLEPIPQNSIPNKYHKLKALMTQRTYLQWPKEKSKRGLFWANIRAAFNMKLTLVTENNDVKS

CCCCCCCCCCC[C@@H](O)CC(=O)N[C@@H]1C(O)OC(CO[C@@H]2OC(CO)[C@@H](OP(=O)(O)O)[C@H](OC(=O)C[C@@H](CCCCCCCCCCC)OC(=O)CCCCCCCCC)[C@@H]2NC(=O)C[C@@H](CCCCCCCCCCC)OC(=O)CCCCCCCCC)[C@@H](O)[C@@H]1OC(=O)C[C@H](O)CCCCCCCCCCC (stereo partly drawn) [Compound IX, (3R)-((2R,3S,4R,5S)-3-((R)-3-(DECANOYLOXY)TETRADECANAMIDO)-2-(((3S,4R,5S)-3,6-DIHYDROXY-5-((R)-3-HYDROXYTETRADECANAMIDO)-4-((R)-3-HYDROXYTETRADECANOYLOXY)TETRAHYDRO-2H-PYRAN-2-YL)METHOXY)-6-(HYDROXYMETHYL)-5-(PHOSPHONOOXY)TETRAHYDRO-2H-PYRAN-4-YL) 3-(DECANOYLOXY)TETRADECANOATE]
ID83 antigen-specific IFN-γ cytokine responses (IFN-γ secreting cells per million of splenocytes, ELISPOT) ([1]; C57BL/6 mice, 8 μg ID83 + 10 μg adjuvant in stable emulsion, three immunizations at three-week intervals, three weeks after the third immunization): induced robust ID83 antigen-specific cytokine responses | type of antigen-specific immune response induced (conclusion) ([1]; Compound IX in a stable oil formulation with ID83): induced predominantly antigen-specific immune responses of the cellular type (T cell) associated with the protective TH1 phenotype | TLR4 agonist activity (TLR4, MD-2, and CD14; HEK 293 cells with TLR4, MD-2, CD14 and NF-kB reporter): clear TLR4 agonist activity | shape of profile with increasing concentration (TLR4, MD-2, and CD14; serial dilutions): plateaus rapidly as concentrations are increased | immunostimulatory activity (induction of MIP-1-α and TNF-α) (human whole blood cells): has immunostimulatory activity in primary human blood cells | induction of TLR2 (TLR2 and TLR6): did not appear to be associated with induction of TLR2
